Results from publication PMC7478253, “Design, synthesis, and SAR study of isopropoxy allylbenzene derivatives as 15-lipoxygenase inhibitors” (Iranian Journal of Basic Medical Sciences, 2020).
Entries after “also recorded” stand apart in the source; their conditions may differ. Where two headings read alike, the source gives them in different places.

Assays:
[1] = target: T1, soybean 15-lipoxygenase (SLO; L1; Type I-B; EC 1,13,11,12) (Glycine max, UniProt P08170); experiment: SLO enzyme inhibition, peroxide-formation method (substrate linoleic acid); type: biochemical
T1 construct: purchased Sigma Co
T1 sequence (P08170 1-839): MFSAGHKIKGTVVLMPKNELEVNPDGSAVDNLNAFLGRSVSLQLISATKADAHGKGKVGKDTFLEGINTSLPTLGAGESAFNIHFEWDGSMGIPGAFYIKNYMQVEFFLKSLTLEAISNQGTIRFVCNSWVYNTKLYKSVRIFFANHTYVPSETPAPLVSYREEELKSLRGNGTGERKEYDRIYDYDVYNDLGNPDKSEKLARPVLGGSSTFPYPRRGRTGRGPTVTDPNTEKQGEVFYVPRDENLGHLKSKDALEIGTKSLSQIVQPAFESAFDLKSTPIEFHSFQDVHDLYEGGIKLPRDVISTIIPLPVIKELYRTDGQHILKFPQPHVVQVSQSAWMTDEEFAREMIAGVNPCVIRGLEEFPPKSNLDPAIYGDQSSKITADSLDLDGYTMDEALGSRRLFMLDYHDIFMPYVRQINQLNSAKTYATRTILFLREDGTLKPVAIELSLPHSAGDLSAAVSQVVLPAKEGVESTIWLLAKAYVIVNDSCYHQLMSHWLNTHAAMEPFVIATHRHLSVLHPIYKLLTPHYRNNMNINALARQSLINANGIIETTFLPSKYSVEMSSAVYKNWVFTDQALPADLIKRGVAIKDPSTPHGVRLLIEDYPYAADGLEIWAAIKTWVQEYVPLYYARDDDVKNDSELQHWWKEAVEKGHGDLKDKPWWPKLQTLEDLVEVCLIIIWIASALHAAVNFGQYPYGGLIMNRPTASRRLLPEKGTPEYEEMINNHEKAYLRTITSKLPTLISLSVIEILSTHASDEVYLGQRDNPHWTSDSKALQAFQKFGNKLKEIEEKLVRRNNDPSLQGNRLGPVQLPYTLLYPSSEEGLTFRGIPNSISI
Protocol: LA, enzyme and two assay solutions (A and B) were firstly prepared as follow:
LA solution: A mixture of LA (5.6 mg), ethanol (0.5 ml) and KOH (100 mM) to a final volume of 5 ml (6).
The enzyme solution was prepared by dissolving 1 mg lyophilized SLO (L1; Type I-B; EC 1, 13, 11, 12; Sigma Co.) in 5 ml phosphate buffer (50 mM, pH 7.0) and then its activity was checked by diene formation method at 234 nm. Finally, its activity was decreased to desired quantity by dilution with the phosphate buffer.
Solution A: DMAB (3-dimethylaminobenzoic acid) 50 mM in phosphate buffer (100 mM, pH 7.0).
Solution B: A mixture of MBTH (3-methyl-2-benzothiazolonhydrazone) (10 mM, 3 ml) and hemoglobin (5 mg/ml, 3 ml) in 25 ml phosphate buffer (50 mM, pH 5.0).
Assay procedure: the sample solution in dimethyl sulfoxide (25 µl), enzyme solution (4000 units/ml; 25 µl), and phosphate buffer (pH 7.0, 50 mM; 900 µl) were mixed in a test plate and pre-incubated for 5 min at room temperature. Control test was done using the same volume of dimethyl sulfoxide. After pre-incubation, LA solution (50 µl) was added (starting of the peroxidation reaction) and 10 min later, solution A (270 µl) and subsequently solution B (130 µl) were added to start the color formation. 3 min later, 200 µl of sodium dodecyl sulfate solution (2% W/V) was added to terminate the reaction. The absorbance was recorded at 598 nm. Each experiment was performed in triplicate. The data analysis was done in GraphPad Prism 6.0 ([6]).
Lipoxygenase inhibitory activity of the synthetic compounds (substrate: linoleic acid) was assessed by using the peroxide-formation method, according to the published literature ([14], [15]). In this method, measurement of linoleate hydroperoxide concentration is the basis of lipoxygenase activity determination. All the assessments were performed in comparison with 4-MMPB (4-methyl-2-(4-methylpiperazinyl)pyrimido[4,5-b]benzothiazine) as a well-known lipoxygenase inhibitor.

[2] = target: T2, soybean 15-lipoxygenase (SLO) (Glycine max, UniProt P08170); experiment: Inhibitory mechanism of SLO inhibition (Michaelis-Menten / Lineweaver-Burk); type: biochemical; details: Tris buffer pH 7.2; LA 6.25-100 µM; inhibitor 125, 100 and 75 µM; Lineweaver-Burk plot
T2 construct: purchased Sigma Co
T2 sequence (P08170 1-839): T1 sequence (P08170 1-839)
Protocol: The experiment was done in Tris buffer (pH 7.2, 50 mM). Five concentrations of LA (6.25, 12.5, 25, 50 and 100 µM) were used. The enzyme activity was measured in the absence (control test) and presence of 6f as inhibitor (concentrations 125, 100, and 75 µM).
25 µl of the enzyme solution (4000 unit/ml) was added to mixture of buffer (900 µl) and inhibitor (25 µl) and incubated for 10 min at room temperature. Subsequently, 50 µl of LA solution was added to the mixture to start the reaction. After 10 min, solution A (270 µl) and then solution B (130 µl) were added to start color formation (preparation of solution A and B described in the previous section). 3 min later, 200 µl of a 2% SDS solution was added to terminate the reaction. The absorbance was recorded at 598 nm compared with the control. These experiments were performed in triplicate. Using the reaction rates (Abs.min^-1), both inhibitor and LA concentrations (µM), Michaelis-Menten and Lineweaver-Burk plots were graphed in GraphPad Prism 6.0.
So molecular docking by AutoDockTools could be responsible for finding the probable binding conformation of the inhibitors in active site pocket of SLO.

[3] = target: T1, soybean 15-lipoxygenase (SLO; L1; Type I-B; EC 1,13,11,12); details: cited from earlier work
[4] = substrate linoleic acid, phosphate buffer pH 7.0, absorbance 598 nm, triplicate, read-out: IC50 (SLO inhibition)

Row | Compound | melting point [°C] | IC50 [1, 4] [µM] | also measured
1 | C=CCc1cc(NC(=O)c2ccccc2)ccc1OC(C)C [Compound 6e, N-(3-allyl-4-isopropoxyphenyl) benzamide] | 128 to 130 | > 100 | SLO inhibition, result in words ([1]; substrate linoleic acid): no effect; also recorded: did not show any activity
2 | C=CCc1cc(NC(=O)C23CC4CC(CC(C4)C2)C3)ccc1OC(C)C [Compound 6f, N-(3-allyl-4-isopropoxyphenyl) adamantane carboxamide] |  |  | Inhibitory mechanism on SLO [2]: competitive mechanism; IC50 [1]: 1.35 ± 0.08 µM
3 | C=CCOc1ccc(NC(=O)C23CC4CC(CC(C4)C2)C3)cc1CC=C [Compound A1, N-(3-allyl-4-(allyloxy)phenyl) adamantanecarboxamide] |  |  | IC50 ([3]; previous work on N-(3-allyl-4-(allyloxy)phenyl) carboxamides, read-out: IC50 (lipoxygenase inhibition) of A1): 9.8 ± 1.2 µM
4 | C=CCc1cc(OC)ccc1OC(C)C [Compound A2, 2-allyl-1-isopropoxy-4-methoxybenzene] |  |  | IC50 ([3]; previous work on 2-alkoxy-5-methoxyallylbenzenes, read-out: IC50 (lipoxygenase inhibition) of A2): 5.9 ± 0.6 µM

The next lines start with results.

Row | melting point [°C] | IC50 [1, 4] [µM] | Compound | also measured
5 | 78 to 79 | 45.5 ± 8.1 | C=CCc1cc(NC(=O)C2CC2)ccc1OC(C)C [Compound 6a, N-(3-allyl-4-isopropoxyphenyl) cyclopropane carboxamide] | 
6 | 81 to 83 | 25.2 ± 2.1 | C=CCc1cc(NC(=O)C2CCC2)ccc1OC(C)C [Compound 6b, N-(3-allyl-4-isopropoxyphenyl) cyclobutane carboxamide] | 
7 | 88 to 89 | 9.27 ± 1.9 | C=CCc1cc(NC(=O)C2CCCC2)ccc1OC(C)C [Compound 6c, N-(3-allyl-4-isopropoxyphenyl) cyclopentane carboxamide] | 
8 | 93 to 95 | 3.56 ± 0.21 | C=CCc1cc(NC(=O)C2CCCCC2)ccc1OC(C)C [Compound 6d, N-(3-allyl-4-isopropoxyphenyl) cyclohexane carboxamide] | 
